Test results reported in the NIST ThermoML archive (doi:10.1021/je100715x).

What was measured:
[1] = refractive index (Na D-line) (dimensionless); xn = mol fraction of the nth substance listed; settings: 101 kPa, Liquid, Standard Abbe refractometry
[2] = xn = mol fraction of the nth substance listed; settings: 101 kPa, Liquid; for viscosity: Capillary tube (Ostwald / Ubbelohde) method; for mass density: Vibrating tube method

CCOC(=O)C(=O)OCC [diethyl ethanedioate] + CC(=O)c1ccccc1
Settings | mass density, 303.15 K [kg/m3] | mass density, 308.15 K [kg/m3] | mass density, 313.15 K [kg/m3] | refractive index, 303.15 K | refractive index, 308.15 K | refractive index, 313.15 K | viscosity, 303.15 K [mPa·s] | viscosity, 308.15 K [mPa·s] | viscosity, 313.15 K [mPa·s]
[1], x1 = 0.0875 | – | – | – | 1.5171 | 1.5151 | 1.5133 | – | – | –
[1], x1 = 0.1478 | – | – | – | 1.5087 | 1.5068 | 1.5053 | – | – | –
[1], x1 = 0.2538 | – | – | – | 1.4945 | 1.4928 | 1.4912 | – | – | –
[1], x1 = 0.3443 | – | – | – | 1.4826 | 1.4811 | 1.4796 | – | – | –
[1], x1 = 0.4591 | – | – | – | 1.4685 | 1.4671 | 1.4656 | – | – | –
[1], x1 = 0.5501 | – | – | – | 1.4574 | 1.456 | 1.4544 | – | – | –
[1], x1 = 0.6601 | – | – | – | 1.4439 | 1.4424 | 1.4411 | – | – | –
[1], x1 = 0.7601 | – | – | – | 1.4325 | 1.4309 | 1.4293 | – | – | –
[1], x1 = 0.8846 | – | – | – | 1.4187 | 1.4167 | 1.4154 | – | – | –
[1], x1 = 0.95 | – | – | – | 1.4117 | 1.4095 | 1.4079 | – | – | –
[2], x1 = 0.0875 | 1024.1 | 1021 | 1017.4 | – | – | – | 1.557 | 1.405 | 1.308
[2], x1 = 0.1478 | 1026.7 | 1023.6 | 1019.9 | – | – | – | 1.578 | 1.418 | 1.317
[2], x1 = 0.2538 | 1031.2 | 1027.9 | 1024 | – | – | – | 1.61 | 1.439 | 1.333
[2], x1 = 0.3443 | 1034.9 | 1031.5 | 1027.5 | – | – | – | 1.628 | 1.454 | 1.344
[2], x1 = 0.4591 | 1039.9 | 1036.2 | 1032 | – | – | – | 1.645 | 1.467 | 1.355
[2], x1 = 0.5501 | 1044 | 1040.1 | 1035.7 | – | – | – | 1.655 | 1.477 | 1.362
[2], x1 = 0.6601 | 1049.3 | 1045.2 | 1040.2 | – | – | – | 1.657 | 1.485 | 1.366
[2], x1 = 0.7601 | 1054.3 | 1049.8 | 1044.5 | – | – | – | 1.654 | 1.487 | 1.37
[2], x1 = 0.8846 | 1060.6 | 1055.6 | 1049.9 | – | – | – | 1.648 | 1.489 | 1.373
[2], x1 = 0.95 | 1063.8 | 1058.5 | 1052.5 | – | – | – | 1.635 | 1.49 | 1.375

CCOC(=O)C(=O)OCC [diethyl ethanedioate] + CCC(=O)CC
Settings | mass density, 303.15 K [kg/m3] | mass density, 308.15 K [kg/m3] | mass density, 313.15 K [kg/m3] | refractive index, 303.15 K | refractive index, 308.15 K | refractive index, 313.15 K | viscosity, 303.15 K [mPa·s] | viscosity, 308.15 K [mPa·s] | viscosity, 313.15 K [mPa·s]
[1], x1 = 0.0865 | – | – | – | 1.3901 | 1.3881 | 1.3861 | – | – | –
[1], x1 = 0.1436 | – | – | – | 1.3916 | 1.3897 | 1.3877 | – | – | –
[1], x1 = 0.2448 | – | – | – | 1.3941 | 1.3924 | 1.3906 | – | – | –
[1], x1 = 0.3389 | – | – | – | 1.3962 | 1.3947 | 1.393 | – | – | –
[1], x1 = 0.4495 | – | – | – | 1.3984 | 1.3969 | 1.3954 | – | – | –
[1], x1 = 0.5325 | – | – | – | 1.3999 | 1.3983 | 1.3969 | – | – | –
[1], x1 = 0.6518 | – | – | – | 1.4018 | 1.4 | 1.3986 | – | – | –
[1], x1 = 0.7587 | – | – | – | 1.4033 | 1.4014 | 1.3998 | – | – | –
[1], x1 = 0.8659 | – | – | – | 1.4047 | 1.4026 | 1.4008 | – | – | –
[1], x1 = 0.9438 | – | – | – | 1.4056 | 1.4034 | 1.4015 | – | – | –
[2], x1 = 0.0865 | 834 | 829.9 | 825.8 | – | – | – | 0.485 | 0.452 | 0.44
[2], x1 = 0.1436 | 852 | 847.8 | 843.6 | – | – | – | 0.527 | 0.491 | 0.478
[2], x1 = 0.2448 | 882.5 | 878.2 | 873.8 | – | – | – | 0.61 | 0.567 | 0.551
[2], x1 = 0.3389 | 909.4 | 905 | 900.5 | – | – | – | 0.701 | 0.65 | 0.627
[2], x1 = 0.4495 | 939.4 | 934.8 | 930.1 | – | – | – | 0.818 | 0.759 | 0.726
[2], x1 = 0.5325 | 960.8 | 956.1 | 951.2 | – | – | – | 0.916 | 0.848 | 0.808
[2], x1 = 0.6518 | 990 | 985.1 | 979.9 | – | – | – | 1.071 | 0.987 | 0.936
[2], x1 = 0.7587 | 1014.7 | 1009.6 | 1004.2 | – | – | – | 1.224 | 1.121 | 1.061
[2], x1 = 0.8659 | 1038.2 | 1032.9 | 1027.2 | – | – | – | 1.395 | 1.274 | 1.196
[2], x1 = 0.9438 | 1054.6 | 1049.1 | 1043.3 | – | – | – | 1.525 | 1.391 | 1.295

CCOC(=O)C(=O)OCC [diethyl ethanedioate] + O=C1CCCC1
Settings | mass density, 303.15 K [kg/m3] | mass density, 308.15 K [kg/m3] | mass density, 313.15 K [kg/m3] | refractive index, 303.15 K | refractive index, 308.15 K | refractive index, 313.15 K | viscosity, 303.15 K [mPa·s] | viscosity, 308.15 K [mPa·s] | viscosity, 313.15 K [mPa·s]
[1], x1 = 0.0679 | – | – | – | 1.4299 | 1.4278 | 1.4262 | – | – | –
[1], x1 = 0.1501 | – | – | – | 1.4264 | 1.4244 | 1.4231 | – | – | –
[1], x1 = 0.2518 | – | – | – | 1.4226 | 1.4207 | 1.4198 | – | – | –
[1], x1 = 0.3903 | – | – | – | 1.4182 | 1.4164 | 1.4158 | – | – | –
[1], x1 = 0.4511 | – | – | – | 1.4164 | 1.4147 | 1.4142 | – | – | –
[1], x1 = 0.5509 | – | – | – | 1.4139 | 1.4122 | 1.4116 | – | – | –
[1], x1 = 0.6587 | – | – | – | 1.4115 | 1.4098 | 1.4089 | – | – | –
[1], x1 = 0.7587 | – | – | – | 1.4098 | 1.4079 | 1.4067 | – | – | –
[1], x1 = 0.8755 | – | – | – | 1.408 | 1.4059 | 1.4043 | – | – | –
[1], x1 = 0.961 | – | – | – | 1.4068 | 1.4045 | 1.4027 | – | – | –
[2], x1 = 0.0679 | 950.9 | 946.1 | 941.1 | – | – | – | 1.045 | 0.96 | 0.891
[2], x1 = 0.1501 | 965 | 960.1 | 954.9 | – | – | – | 1.095 | 0.999 | 0.925
[2], x1 = 0.2518 | 981 | 976 | 970.6 | – | – | – | 1.153 | 1.048 | 0.968
[2], x1 = 0.3903 | 1000.6 | 995.4 | 989.9 | – | – | – | 1.233 | 1.119 | 1.031
[2], x1 = 0.4511 | 1008.5 | 1003.2 | 997.7 | – | – | – | 1.265 | 1.152 | 1.058
[2], x1 = 0.5509 | 1020.7 | 1015.3 | 1009.7 | – | – | – | 1.326 | 1.207 | 1.107
[2], x1 = 0.6587 | 1032.9 | 1027.4 | 1021.7 | – | – | – | 1.394 | 1.269 | 1.163
[2], x1 = 0.7587 | 1043.4 | 1037.9 | 1032.1 | – | – | – | 1.458 | 1.329 | 1.219
[2], x1 = 0.8755 | 1054.9 | 1049.3 | 1043.3 | – | – | – | 1.537 | 1.401 | 1.288
[2], x1 = 0.961 | 1062.7 | 1057 | 1051 | – | – | – | 1.596 | 1.454 | 1.342

CCOC(=O)C(=O)OCC [diethyl ethanedioate] + O=C1CCCCC1
Settings | mass density, 303.15 K [kg/m3] | mass density, 308.15 K [kg/m3] | mass density, 313.15 K [kg/m3] | refractive index, 303.15 K | refractive index, 308.15 K | refractive index, 313.15 K | viscosity, 303.15 K [mPa·s] | viscosity, 308.15 K [mPa·s] | viscosity, 313.15 K [mPa·s]
[1], x1 = 0.0784 | – | – | – | 1.4429 | 1.4406 | 1.4388 | – | – | –
[1], x1 = 0.1495 | – | – | – | 1.4399 | 1.4376 | 1.4359 | – | – | –
[1], x1 = 0.2501 | – | – | – | 1.4359 | 1.434 | 1.4321 | – | – | –
[1], x1 = 0.3443 | – | – | – | 1.4323 | 1.4307 | 1.4287 | – | – | –
[1], x1 = 0.4324 | – | – | – | 1.4287 | 1.4273 | 1.4252 | – | – | –
[1], x1 = 0.5507 | – | – | – | 1.4239 | 1.4223 | 1.4204 | – | – | –
[1], x1 = 0.6755 | – | – | – | 1.4186 | 1.4168 | 1.4152 | – | – | –
[1], x1 = 0.7601 | – | – | – | 1.4154 | 1.4133 | 1.4116 | – | – | –
[1], x1 = 0.8756 | – | – | – | 1.4108 | 1.4088 | 1.4071 | – | – | –
[1], x1 = 0.9502 | – | – | – | 1.4081 | 1.4059 | 1.4043 | – | – | –
[2], x1 = 0.0784 | 950.2 | 945.1 | 940.1 | – | – | – | 1.777 | 1.595 | 1.466
[2], x1 = 0.1495 | 961 | 955.8 | 950.6 | – | – | – | 1.737 | 1.556 | 1.416
[2], x1 = 0.2501 | 975.4 | 970.3 | 964.9 | – | – | – | 1.682 | 1.5 | 1.36
[2], x1 = 0.3443 | 988.4 | 983.1 | 977.7 | – | – | – | 1.637 | 1.461 | 1.325
[2], x1 = 0.4324 | 1000 | 994.7 | 989.2 | – | – | – | 1.609 | 1.435 | 1.304
[2], x1 = 0.5507 | 1015.1 | 1009.6 | 1004 | – | – | – | 1.584 | 1.415 | 1.285
[2], x1 = 0.6755 | 1030.3 | 1024.7 | 1019 | – | – | – | 1.575 | 1.404 | 1.276
[2], x1 = 0.7601 | 1040.2 | 1034.5 | 1028.7 | – | – | – | 1.581 | 1.407 | 1.284
[2], x1 = 0.8756 | 1053.1 | 1047.4 | 1041.4 | – | – | – | 1.606 | 1.437 | 1.329
[2], x1 = 0.9502 | 1061 | 1055.3 | 1049.3 | – | – | – | 1.62 | 1.464 | 1.351
